EC50, Emax and Selectivity data for six compounds are collected here from ChEMBL document CHEMBL1139487, “Discovery of corticotropin releasing factor 2 receptor selective sauvagine analogues for treatment of skeletal muscle atrophy” (J Med Chem, 2005).

Experiment [1] concerns the target T1, Corticotropin-releasing factor receptor 1 (Mus musculus, UniProt P35347).
T1 sequence (P35347 whole entry): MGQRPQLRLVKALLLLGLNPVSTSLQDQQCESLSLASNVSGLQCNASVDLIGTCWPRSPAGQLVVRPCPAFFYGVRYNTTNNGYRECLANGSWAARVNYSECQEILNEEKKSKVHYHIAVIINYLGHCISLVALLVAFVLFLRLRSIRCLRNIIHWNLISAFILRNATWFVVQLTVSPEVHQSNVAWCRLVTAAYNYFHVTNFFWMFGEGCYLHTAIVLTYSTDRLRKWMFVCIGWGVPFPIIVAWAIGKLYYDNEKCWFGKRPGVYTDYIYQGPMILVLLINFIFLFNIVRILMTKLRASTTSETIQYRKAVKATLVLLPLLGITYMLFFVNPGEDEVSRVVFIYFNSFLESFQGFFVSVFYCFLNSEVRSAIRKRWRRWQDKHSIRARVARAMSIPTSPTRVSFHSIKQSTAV
Kind of experiment: In vitro effective concentration for mouse corticotropin releasing factor 1 receptor.

For experiment [2], the target named is T2, Corticotropin-releasing factor receptor 1 (Mus musculus) (UniProt P35347).
T2 sequence (whole entry): T1 sequence (P35347 whole entry)
Kind of experiment: In vitro agonistic activity against mouse corticotropin releasing factor 1 receptor. The format is functional.

Experiment [3] deals with Corticotropin-releasing factor receptor 2 (Mus musculus) (UniProt Q60748). Kind of experiment: In vitro agonistic activity against mouse corticotropin releasing factor 2 receptor. The format is functional.
The species named for experiment [4] is Mus musculus. Nature of the experiment: Selectivity ratio of EC50s for mouse corticotropin releasing factor receptors 1 and 2.
In experiment [5] the target is Corticotropin-releasing factor receptor 2 (Mus musculus, UniProt Q60748). Kind of experiment: In vitro effective concentration for mouse corticotropin releasing factor 2 receptor.

pEC50: −log10 of the molar value.

As usually defined, the pEC50 is the negative decadic logarithm of the EC50, by convention in mol/L. High values mean a low EC50, low ones a high EC50. The term Emax denotes the greatest response seen or fitted, relative to the assay's reference.

Chain of Corticotropin-releasing factor receptor 2 (Q60748 whole entry): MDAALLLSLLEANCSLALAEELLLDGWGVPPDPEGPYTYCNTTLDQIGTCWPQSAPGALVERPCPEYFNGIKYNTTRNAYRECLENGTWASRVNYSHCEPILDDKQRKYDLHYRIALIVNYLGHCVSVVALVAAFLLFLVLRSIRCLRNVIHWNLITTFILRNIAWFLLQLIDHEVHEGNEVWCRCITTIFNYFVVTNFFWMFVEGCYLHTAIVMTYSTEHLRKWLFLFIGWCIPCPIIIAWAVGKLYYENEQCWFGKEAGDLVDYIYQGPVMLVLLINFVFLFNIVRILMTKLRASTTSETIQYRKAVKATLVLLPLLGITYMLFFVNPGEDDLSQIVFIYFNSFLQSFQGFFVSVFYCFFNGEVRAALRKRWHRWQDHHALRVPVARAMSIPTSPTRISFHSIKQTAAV
Chain of Corticotropin-releasing factor receptor 2 (Mus musculus) (Q60748 whole entry): as above

Turning to `CC[C@H](C)[C@H](NC(=O)[C@@H](NC(=O)[C@H](CC(=O)O)NC(=O)[C@H](CC(C)C)NC(=O)[C@H](CC(C)C)NC(=O)[C@H](CC(C)C)NC(=O)[C@H](CCCN=C(N)N)NC(=O)[C@H](CC(N)=O)NC(=O)[C@H](CC(N)=O)NC(=O)[C@H](C)NC(=O)[C@H](C)NC(=O)[C@H](CCC(N)=O)NC(=O)[C@H](CCC(N)=O)NC(=O)[C@H](CCCCN)NC(=O)[C@H](CCC(=O)O)NC(=O)[C@H](CCCCN)NC(=O)[C@H](CCC(=O)O)NC(=O)[C@H](CCC(N)=O)NC(=O)[C@H](CCCCN)NC(=O)[C@H](CCC(=O)O)NC(=O)[C@@H](NC(=O)[C@H](CCC(=O)O)NC(=O)[C@@H](NC(=O)[C@H](CCSC)NC(=O)[C@H](CCCCN)NC(=O)[C@H](CCCN=C(N)N)NC(=O)[C@H](CC(C)C)NC(=O)[C@H](CC(C)C)NC(=O)[C@H](Cc1c[nH]c2ccccc12)NC(=O)[C@H](CCC(N)=O)NC(=O)[C@@H]1CCCN1C(=O)[C@H](CC(C)C)NC(=O)[C@H](CC(=O)O)NC(=O)[C@@H](NC(=O)[C@H](CO)NC(=O)[C@@H](NC(=O)[C@@H]1CCCN1C(=O)[C@@H]1CCCN1C(=O)CNC(=O)[C@@H]1CCC(=O)N1)[C@@H](C)CC)[C@@H](C)CC)[C@@H](C)CC)[C@@H](C)CC)[C@@H](C)O)C(=O)O`, the pEC50 in experiment [1] is under 6.00; in experiment [5], 7.66. Besides, the Emax in experiment [2] was 78%; in experiment [3], 99%. The Selectivity in experiment [4] is over 46.

With `CC[C@H](C)[C@H](NC(=O)[C@@H](NC(=O)[C@H](CC(=O)O)NC(=O)[C@H](CC(C)C)NC(=O)[C@H](CC(C)C)NC(=O)[C@H](CC(C)C)NC(=O)[C@H](CCCN=C(N)N)NC(=O)[C@H](CC(N)=O)NC(=O)[C@H](CC(N)=O)NC(=O)[C@H](C)NC(=O)[C@H](C)NC(=O)[C@H](CCC(N)=O)NC(=O)[C@H](CCC(N)=O)NC(=O)[C@H](CCCCN)NC(=O)[C@H](CCC(=O)O)NC(=O)[C@H](CCCCN)NC(=O)[C@H](CCC(=O)O)NC(=O)[C@H](CCC(N)=O)NC(=O)[C@H](CCCCN)NC(=O)[C@H](CCC(=O)O)NC(=O)[C@@H](NC(=O)[C@H](CCC(=O)O)NC(=O)[C@@H](NC(=O)[C@H](CCSC)NC(=O)[C@H](CCCCN)NC(=O)[C@H](CCCN=C(N)N)NC(=O)[C@H](CC(C)C)NC(=O)[C@H](CC(C)C)NC(=O)[C@H](Cc1c[nH]c2ccccc12)NC(=O)[C@H](CC(C)C)NC(=O)[C@@H]1CCCN1C(=O)[C@H](CC(C)C)NC(=O)[C@H](CC(=O)O)NC(=O)[C@@H](NC(=O)[C@H](CO)NC(=O)[C@@H](NC(=O)[C@@H]1CCCN1C(=O)[C@@H]1CCCN1C(=O)CNC(=O)[C@@H]1CCC(=O)N1)[C@@H](C)CC)[C@@H](C)CC)[C@@H](C)CC)[C@@H](C)CC)[C@@H](C)O)C(=O)O`, the figures for the pEC50 in experiment [1] and in experiment [5] were 7.01 and 8.32, respectively. For the same compound, the values for the Emax in experiment [2] and in experiment [3] were 100% and 96%, respectively. The Selectivity in experiment [4] was found to be 20.

`CC[C@H](C)[C@H](NC(=O)[C@@H](NC(=O)[C@H](CC(=O)O)NC(=O)[C@H](CC(C)C)NC(=O)[C@H](CC(C)C)NC(=O)[C@H](CC(C)C)NC(=O)[C@H](CCCN=C(N)N)NC(=O)[C@H](CC(N)=O)NC(=O)[C@H](CC(N)=O)NC(=O)[C@H](C)NC(=O)[C@H](C)NC(=O)[C@H](CCC(N)=O)NC(=O)[C@H](CCC(N)=O)NC(=O)[C@H](CCCCN)NC(=O)[C@H](CCC(=O)O)NC(=O)[C@H](CCCCN)NC(=O)[C@H](CCC(=O)O)NC(=O)[C@H](CCC(N)=O)NC(=O)[C@H](CCCCN)NC(=O)[C@H](CCC(=O)O)NC(=O)[C@@H](NC(=O)[C@H](CCC(=O)O)NC(=O)[C@@H](NC(=O)[C@H](CCSC)NC(=O)[C@H](CCCCN)NC(=O)[C@H](CCCN=C(N)N)NC(=O)[C@H](CC(C)C)NC(=O)[C@H](CC(C)C)NC(=O)[C@H](Cc1c[nH]c2ccccc12)NC(=O)[C@H](Cc1ccc(O)cc1)NC(=O)[C@@H]1CCCN1C(=O)[C@H](CC(C)C)NC(=O)[C@H](CC(=O)O)NC(=O)[C@@H](NC(=O)[C@H](CO)NC(=O)[C@@H](NC(=O)[C@@H]1CCCN1C(=O)[C@@H]1CCCN1C(=O)CNC(=O)[C@@H]1CCC(=O)N1)[C@@H](C)CC)[C@@H](C)CC)[C@@H](C)CC)[C@@H](C)CC)[C@@H](C)O)C(=O)O`: the pEC50 was 6.73 in experiment [1] and 8.40 in experiment [5]. Also, the Emax in experiment [2] and in experiment [3] was 100% in each case. The Selectivity in experiment [4] is 47.

With `CC[C@H](C)[C@H](NC(=O)[C@@H](NC(=O)[C@H](CC(=O)O)NC(=O)[C@H](CC(C)C)NC(=O)[C@H](CC(C)C)NC(=O)[C@H](CC(C)C)NC(=O)[C@H](CCCN=C(N)N)NC(=O)[C@H](CC(N)=O)NC(=O)[C@H](CC(N)=O)NC(=O)[C@H](C)NC(=O)[C@H](C)NC(=O)[C@H](CCC(N)=O)NC(=O)[C@H](CCC(N)=O)NC(=O)[C@H](CCCCN)NC(=O)[C@H](CCC(=O)O)NC(=O)[C@H](CCCCN)NC(=O)[C@H](CCC(=O)O)NC(=O)[C@H](CCC(N)=O)NC(=O)[C@H](CCCCN)NC(=O)[C@H](CCC(=O)O)NC(=O)[C@@H](NC(=O)[C@H](CCC(=O)O)NC(=O)[C@@H](NC(=O)[C@H](CCSC)NC(=O)[C@H](CCCCN)NC(=O)[C@H](CCCN=C(N)N)NC(=O)[C@H](CC(C)C)NC(=O)[C@H](CC(C)C)NC(=O)[C@H](Cc1ccccc1)NC(=O)[C@H](C)NC(=O)[C@@H]1CCCN1C(=O)[C@H](CC(C)C)NC(=O)[C@H](CC(=O)O)NC(=O)[C@@H](NC(=O)[C@H](CO)NC(=O)[C@@H](NC(=O)[C@@H]1CCCN1C(=O)[C@@H]1CCCN1C(=O)CNC(=O)[C@@H]1CCC(=O)N1)[C@@H](C)CC)[C@@H](C)CC)[C@@H](C)CC)[C@@H](C)CC)[C@@H](C)O)C(=O)O`, the pEC50 was 6.42 in experiment [1] and 8.03 in experiment [5]. Also, the Emax in experiment [2] came to 95%; in experiment [3], 100%. In addition, the Selectivity in experiment [4] is 41.

With `CC[C@H](C)[C@H](NC(=O)[C@@H](NC(=O)[C@H](CC(=O)O)NC(=O)[C@H](CC(C)C)NC(=O)[C@H](CC(C)C)NC(=O)[C@H](CC(C)C)NC(=O)[C@H](CCCN=C(N)N)NC(=O)[C@H](CC(N)=O)NC(=O)[C@H](CC(N)=O)NC(=O)[C@H](C)NC(=O)[C@H](C)NC(=O)[C@H](CCC(N)=O)NC(=O)[C@H](CCC(N)=O)NC(=O)[C@H](CCCCN)NC(=O)[C@H](CCC(=O)O)NC(=O)[C@H](CCCCN)NC(=O)[C@H](CCC(=O)O)NC(=O)[C@H](CCC(N)=O)NC(=O)[C@H](CCCCN)NC(=O)[C@H](CCC(=O)O)NC(=O)[C@@H](NC(=O)[C@H](CCC(=O)O)NC(=O)[C@@H](NC(=O)[C@H](CCSC)NC(=O)[C@H](CCCCN)NC(=O)[C@H](CCCN=C(N)N)NC(=O)[C@H](CC(C)C)NC(=O)[C@H](CC(C)C)NC(=O)[C@H](Cc1ccc(O)cc1)NC(=O)[C@H](CC(N)=O)NC(=O)[C@@H]1CCCN1C(=O)[C@H](CC(C)C)NC(=O)[C@H](CC(=O)O)NC(=O)[C@@H](NC(=O)[C@H](CO)NC(=O)[C@@H](NC(=O)[C@@H]1CCCN1C(=O)[C@@H]1CCCN1C(=O)CNC(=O)[C@@H]1CCC(=O)N1)[C@@H](C)CC)[C@@H](C)CC)[C@@H](C)CC)[C@@H](C)CC)[C@@H](C)O)C(=O)O`, the pEC50 in experiment [1] is 6.66; in experiment [5] it was 7.67. In addition, the Emax in experiment [2] is 100%; in experiment [3], 93%. Besides, in experiment [4], the Selectivity was found to be 10.

In the case of `CC[C@H](C)[C@H](NC(=O)[C@@H](NC(=O)[C@H](CC(=O)O)NC(=O)[C@H](CC(C)C)NC(=O)[C@H](CC(C)C)NC(=O)[C@H](CC(C)C)NC(=O)[C@H](CCCN=C(N)N)NC(=O)[C@H](CC(N)=O)NC(=O)[C@H](CC(N)=O)NC(=O)[C@H](C)NC(=O)[C@H](C)NC(=O)[C@H](CCC(N)=O)NC(=O)[C@H](CCC(N)=O)NC(=O)[C@H](CCCCN)NC(=O)[C@H](CCC(=O)O)NC(=O)[C@H](CCCCN)NC(=O)[C@H](CCC(=O)O)NC(=O)[C@H](CCC(N)=O)NC(=O)[C@H](CCCCN)NC(=O)[C@H](CCC(=O)O)NC(=O)[C@@H](NC(=O)[C@H](CCC(=O)O)NC(=O)[C@@H](NC(=O)[C@H](CCSC)NC(=O)[C@H](CCCCN)NC(=O)[C@H](CCCN=C(N)N)NC(=O)[C@H](CC(C)C)NC(=O)[C@H](CC(C)C)NC(=O)[C@@H](NC(=O)[C@@H](NC(=O)[C@@H]1CCCN1C(=O)[C@H](CC(C)C)NC(=O)[C@H](CC(=O)O)NC(=O)[C@@H](NC(=O)[C@H](CO)NC(=O)[C@@H](NC(=O)[C@@H]1CCCN1C(=O)[C@@H]1CCCN1C(=O)CNC(=O)[C@@H]1CCC(=O)N1)[C@@H](C)CC)[C@@H](C)CC)[C@@H](C)O)[C@@H](C)CC)[C@@H](C)CC)[C@@H](C)CC)[C@@H](C)O)C(=O)O`, the figures for the pEC50 in experiment [1] and in experiment [5] were under 6.00 and 7.72, respectively. Besides, the figures for the maximal response (Emax) in experiment [2] and in experiment [3] were 42% and 94%, respectively. Moreover, in experiment [4], the Selectivity was over 52.
